This is an account of results in patent US20220220099A1, “BENZAMIDE COMPOUND, AND HERBICIDE” (Nippon Soda Co., Ltd., priority 2019, published 2022).

One data set relates to Apera spica-venti. Description: Test Example 2: spraying treatment on stems and leaves, herbicidal rate. In kind it is in vivo. The following applies: spray amount of 16 g, three weeks later. The method, then:
Emulsion for testing was prepared according to the preparation method described in Test Example 1.
A 150 cm^2 pot was filled with soil, and seeds of Avena sativa, Lolium multiflorum and Apera spica-venti were sowed on the surface layer, and after the soil was covered lightly, the Avena sativa, Lolium multiflorum and Apera spica-venti were grown in a greenhouse. At the point in time when Avena sativa was grown to a plant height of 16 to 20 cm, Lolium multiflorum was grown to a plant height of 10 to 14 cm, and Apera spica-venti was grown to a plant height of 2 to 4 cm, the emulsion for testing was diluted in such a way as to have a predetermined amount of an active ingredient and was sprayed on the leaves and stems in a spray amount of water of 250 L per hectare with a small-sized atomizer.
Three weeks later, the weight of a living weed above the ground was measured for each weed in the nontreated zone and in the treated zone to calculate a herbicidal rate by the following calculation formula.
Herbicidal rate (%)=(weight of living weed above ground in nontreated zone−weight of living weed above ground in treated zone)/(weight of living weed above ground in nontreated zone)×100 […]
Turning to `O=C(Nc1nnnn1CC(F)(F)F)c1ccc(C(F)(F)F)c2c1CCCS2` [c-6], the “herbicidal activity (Apera spica-venti, follows Table 10)” value is on record as no less than 80%.

Test system in a further data set: not given
Experiment: not given
Settings: not given
With `Cn1nnnc1NC(=O)c1ccc(C(F)(F)F)c2c1C(F)CCS2(=O)=O` (stereo not drawn) [b-10], the melting point was 220 to 223 °C.
On to `Cn1nnnc1NC(=O)c1ccc(C(F)(F)F)c2c1CCCS2(=O)=NC#N` (stereo not drawn) [b-19], for which the melting point fell in the range of 151 to 153 °C.
Compound `Cn1nnnc1NC(=O)c1ccc(C(F)(F)F)c2c1CCCS2(=O)=Nc1ccc(Cl)cc1` (stereo not drawn) [b-24] registered a melting point of 113 to 114 °C.
On the same count and under the same terms, the result for `COC1Cc2c(C(=O)Nc3nnnn3C)ccc(C(F)(F)F)c2S(=O)(=O)C1` (stereo not drawn) [b-8] reads 226 to 228 °C; that for `Cn1nnnc1NC(=O)c1ccc(C(F)(F)F)c2c1C(O)CS2(=O)=O` (stereo not drawn) [b-3], 202 to 205 °C.
The compound `CCOC1CS(=O)(=O)c2c(C(F)(F)F)ccc(C(=O)Nc3nnnn3C)c21` (stereo not drawn) [b-1] gave a melting point of 209 to 211 °C.
The same measure, in the same setting: the same measure for `Cn1nnnc1NC(=O)c1ccc(C(F)(F)F)c2c1C(Br)CS2(=O)=O` (stereo not drawn) [b-4]: 209 to 211 °C.
On to `Cn1nnnc1NC(=O)c1ccc(C(F)(F)F)c2c1C(F)CCS2` (stereo not drawn) [b-11], for which the melting point lay within 132 to 135 °C.
As for `CC1CCc2c(C(=O)Nc3nnnn3C)ccc(C(F)(F)F)c2S1(=O)=O` (stereo not drawn) [b-12], the melting point was 270 to 271 °C.
Still for that read-out and setting: the same measure for `COC1CS(=O)(=O)c2c(C(F)(F)F)ccc(C(=O)Nc3nnc(C)o3)c21` (stereo not drawn) [b-5]: 206 to 207 °C; for `CC1CCc2c(C(=O)Nc3nnnn3C)ccc(C(F)(F)F)c2/S1=N/C#N` (stereo not drawn) [b-21]: 117 to 120 °C.
For the compound `COC1CSc2c(C(F)(F)F)ccc(C(=O)Nc3nnnn3C)c2C1` (stereo not drawn) [b-9], the melting point fell in the range of 168 to 170 °C.
`COCC1Cc2c(C(=O)Nc3nnnn3C)ccc(C(F)(F)F)c2S1(=O)=O` (stereo not drawn) [b-2] showed a melting point of 215 to 217 °C.
Regarding `Cn1nnnc1NC(=O)c1ccc(C(F)(F)F)c2c1CCCS2` [a-37, N-(1-Methyl-1H-tetrazol-5-yl)-8-(trifluoromethyl)thiochromane-5-carboxamide], the melting point was in the range of 166 to 167 °C.
Regarding `Cc1nnc(NC(=O)c2ccc(C(F)(F)F)c3c2CCC(C)S3)o1` (stereo not drawn) [b-14], the melting point fell in the range of 182 to 183 °C.
In turn, `Cn1nnnc1NC(=O)c1ccc(C(F)(F)F)c2c1CCCS2(=O)=Nc1ccccc1` (stereo not drawn) [b-23] showed a melting point of 110 to 112 °C.
Still for that read-out and setting: the same measure for `COc1ccc(N=S2(=O)CCCc3c(C(=O)Nc4nnnn4C)ccc(C(F)(F)F)c32)cc1` (stereo not drawn) [b-22]: 123 to 124 °C.

The melting point is the temperature of the solid-liquid transition.
